ChEMBL document CHEMBL1201862, “PubChem BioAssay data set” (2004)
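How tested: cells in 96-well plates exposed to compound for 48 hours at five concentrations. GI50 marks 50% less growth.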 Activity calls are given as the source filed them. No stated cut-off is given here; in the data, active = GI50 up to about 1.1 µM and inactive = higher.

Assays:
Experiment in all cases: NCI anticancer screen, dose series, 48 h
SF-295 = test system: SF-295
RXF 393 = test system: RXF 393
LOX IMVI = test system: LOX IMVI
OVCAR-5 = test system: OVCAR-5
CCRF-CEM = test system: CCRF-CEM
RPMI-8226 = test system: RPMI-8226
HCT-15 = test system: HCT-15
SK-MEL-28 = test system: SK-MEL-28
SF-539 = test system: SF-539
NCI-H460 = test system: NCI-H460
ACHN = test system: ACHN
HOP-62 = test system: HOP-62
MDA-MB-231 = test system: MDA-MB-231
SW-620 = test system: SW-620
A498 = test system: A498
786-0 = test system: 786-0
Hs-578T = test system: Hs-578T
COLO 205 = test system: COLO 205
NCI-H226 = test system: NCI-H226
NCI-H522 = test system: NCI-H522
U-251 = test system: U-251
UO-31 = test system: UO-31
SK-OV-3 = test system: SK-OV-3
UACC-62 = test system: UACC-62
UACC-257 = test system: UACC-257
NCI-H23 = test system: NCI-H23
MOLT-4 = test system: MOLT-4
SK-MEL-2 = test system: SK-MEL-2
OVCAR-4 = test system: OVCAR-4
TK-10 = test system: TK-10
HOP-92 = test system: HOP-92
SR = test system: SR
SNB-19 = test system: SNB-19
NCI/ADR-RES = test system: NCI/ADR-RES
SK-MEL-5 = test system: SK-MEL-5
SF-268 = test system: SF-268
T47D = test system: T47D
IGROV-1 = test system: IGROV-1
K562 = test system: K562
HCT-116 = test system: HCT-116
OVCAR-3 = test system: OVCAR-3
BT-549 = test system: BT-549
EKVX = test system: EKVX
HT-29 = test system: HT-29
PC-3 = test system: PC-3
HL-60 = test system: HL-60
MDA-MB-435 = test system: MDA-MB-435
Malme-3M = test system: Malme-3M
MCF7 = test system: MCF7
DU-145 = test system: DU-145
OVCAR-8 = test system: OVCAR-8
SN12C = test system: SN12C
A549 = test system: A549
CAKI-1 = test system: CAKI-1
KM12 = test system: KM12
MDA-N = test system: MDA-N
M14 = test system: M14
SNB-75 = test system: SNB-75

For `COc1ccc(N(CC(=O)O)N=O)cc1`, the GI50 (SF-295) was > 100 µM (inactive), the GI50 (RXF 393) was > 100 µM (inactive) and the GI50 (LOX IMVI) was > 100 µM (inactive). For the same compound, the GI50 (OVCAR-5) was > 100 µM (inactive), the GI50 (CCRF-CEM) was > 100 µM (inactive) and the GI50 (RPMI-8226) was > 100 µM (inactive). The GI50 (HCT-15) was over 100 µM, the GI50 (SK-MEL-28) was > 100 µM (inactive) and the GI50 (SF-539) was > 100 µM (inactive). For the same compound, the GI50 (NCI-H460) was > 100 µM (inactive), the GI50 (ACHN) was > 100 µM (inactive) and the GI50 (HOP-62) was > 100 µM (inactive). The GI50 (MDA-MB-231) was > 100 µM (inactive), the GI50 (SW-620) was > 100 µM (inactive) and the GI50 (A498) was > 100 µM (inactive). For the same compound, the GI50 (786-0) was > 100 µM (inactive), the GI50 (Hs-578T) was > 100 µM (inactive) and the GI50 (COLO 205) was > 100 µM (inactive). For the same compound, the GI50 (NCI-H226) was > 100 µM (inactive), the GI50 (NCI-H522) was > 100 µM (inactive) and the GI50 (U-251) was > 100 µM (inactive). The GI50 (UO-31) was > 100 µM (inactive), the GI50 (SK-OV-3) was > 100 µM (inactive) and the GI50 (UACC-62) was > 100 µM (inactive). For the same compound, the GI50 (UACC-257) was > 100 µM (inactive), the GI50 (NCI-H23) was > 100 µM (inactive) and the GI50 (MOLT-4) was > 100 µM (inactive). For the same compound, the GI50 (SK-MEL-2) was > 100 µM (inactive), the GI50 (OVCAR-4) was > 100 µM (inactive) and the GI50 (TK-10) was > 100 µM (inactive). The GI50 (HOP-92) was > 100 µM (inactive), the GI50 (SR) was > 100 µM (inactive) and the GI50 (SNB-19) was > 100 µM (inactive). For the same compound, the GI50 (NCI/ADR-RES) was > 100 µM (inactive), the GI50 (SK-MEL-5) was > 100 µM (inactive) and the GI50 (SF-268) was > 100 µM (inactive). The GI50 (T47D) was > 100 µM (inactive), the GI50 (IGROV-1) was > 100 µM (inactive) and the GI50 (K562) was > 100 µM (inactive). For the same compound, the GI50 (HCT-116) was > 100 µM (inactive), the GI50 (OVCAR-3) was > 100 µM (inactive) and the GI50 (BT-549) was > 100 µM (inactive). The GI50 (EKVX) was > 100 µM (inactive), the GI50 (HT-29) was > 100 µM (inactive) and the GI50 (PC-3) was > 100 µM (inactive). The GI50 (HL-60) was > 100 µM (inactive), the GI50 (MDA-MB-435) was > 100 µM (inactive) and the GI50 (Malme-3M) was > 100 µM (inactive). The GI50 (MCF7) was > 100 µM (inactive), the GI50 (DU-145) was > 100 µM (inactive) and the GI50 (OVCAR-8) was > 100 µM (inactive). The GI50 (SN12C) was > 100 µM (inactive), the GI50 (A549) was > 100 µM (inactive) and the GI50 (CAKI-1) was > 100 µM (inactive). The GI50 (KM12) was > 100 µM (inactive), the GI50 (MDA-N) was > 100 µM (inactive) and the GI50 (M14) was > 100 µM (inactive).
For `Clc1ccccc1NN(Cc1ccccn1)c1ccccc1Cl`, the GI50 (SF-295) was 30.1 µM (inactive), the GI50 (RXF 393) was 14.9 µM (inactive) and the GI50 (LOX IMVI) was 18.6 µM (inactive). The GI50 (OVCAR-5) was 20.9 µM (inactive), the GI50 (RPMI-8226) was 16.1 µM (inactive) and the GI50 (HCT-15) was 24.9 µM. The GI50 (SK-MEL-28) was 20.5 µM (inactive), the GI50 (SF-539) was 18.7 µM (inactive) and the GI50 (ACHN) was 33.9 µM (inactive). The GI50 (HOP-62) was 17.9 µM (inactive), the GI50 (MDA-MB-231) was 23.4 µM (inactive) and the GI50 (SW-620) was 17.7 µM (inactive). The GI50 (A498) was 20.5 µM (inactive), the GI50 (786-0) was 16.9 µM (inactive) and the GI50 (Hs-578T) was 26.2 µM (inactive). The GI50 (COLO 205) was 15.6 µM (inactive), the GI50 (NCI-H226) was 16.2 µM (inactive) and the GI50 (NCI-H522) was 17.6 µM (inactive). For the same compound, the GI50 (U-251) was 15.8 µM (inactive), the GI50 (UO-31) was 20.4 µM (inactive) and the GI50 (SK-OV-3) was 49.8 µM (inactive). For the same compound, the GI50 (UACC-62) was 16.7 µM (inactive), the GI50 (NCI-H23) was 20 µM (inactive) and the GI50 (MOLT-4) was 17.3 µM (inactive). For the same compound, the GI50 (SK-MEL-2) was 17.1 µM (inactive), the GI50 (OVCAR-4) was 16.2 µM (inactive) and the GI50 (HOP-92) was 16.1 µM (inactive). For the same compound, the GI50 (SR) was 13.4 µM (inactive), the GI50 (SNB-19) was 27.9 µM (inactive) and the GI50 (NCI/ADR-RES) was 16.7 µM (inactive). The GI50 (SK-MEL-5) was 14.5 µM (inactive), the GI50 (SF-268) was 22.7 µM (inactive) and the GI50 (T47D) was 27.4 µM (inactive). For the same compound, the GI50 (IGROV-1) was 20.2 µM (inactive), the GI50 (K562) was 17.3 µM (inactive) and the GI50 (HCT-116) was 14 µM (inactive). The GI50 (OVCAR-3) was 18.1 µM (inactive), the GI50 (SNB-75) was 20.1 µM (inactive) and the GI50 (BT-549) was 25.1 µM (inactive). For the same compound, the GI50 (EKVX) was 23 µM (inactive), the GI50 (HT-29) was 14.6 µM (inactive) and the GI50 (PC-3) was 29.2 µM (inactive). For the same compound, the GI50 (HL-60) was 18.5 µM (inactive), the GI50 (MDA-MB-435) was 16.6 µM (inactive) and the GI50 (Malme-3M) was 19 µM (inactive). The GI50 (MCF7) was 36.1 µM (inactive), the GI50 (DU-145) was 35.5 µM (inactive) and the GI50 (OVCAR-8) was 21.2 µM (inactive). For the same compound, the GI50 (SN12C) was 18.8 µM (inactive), the GI50 (A549) was 16.7 µM (inactive) and the GI50 (CAKI-1) was 54.3 µM (inactive). The GI50 (KM12) was 16.9 µM (inactive), the GI50 (MDA-N) was 17.2 µM (inactive) and the GI50 (M14) was 18.5 µM (inactive).
